Experiments:
GZMB = test: Western blot of GZMB knockdown in human astrocytes; type: cell-based
Description: (§1) To knockdown PRF1 and GZMB levels in astrocytes, sequences from the RNAi Consortium lentiviral shRNA library were screened and relevant plasmids purchased from Open Biosystems. Clones TRCN0000077206 ([…] (SEQ ID NO: 19)) and TRCN0000032742 ([…] (SEQ ID NO: 20)) were used to target PRF1 and GZMB in mouse astrocytes, respectively. Clones TRCN0000007942 ([…] (SEQ ID NO: 21)) and TRCN0000006448 ([…] (SEQ ID NO: 22)) were used to knockdown PRF1 and GZMB in human astrocytes, respectively. Scrambled shRNA were used as controls for PRF1 ([…] (SEQ ID NO: 23)) and for GZMB ([…] (SEQ ID NO: 24)). […] Prior to addition to astrocytes, viral titer was obtained using Quick-titer lentivirus quantification kit follow manufacture's directions (CellBiolabs Inc, San Diego, Calif., USA).
(§2) Based on the levels of knockdown efficiency evaluated by western blot analysis, clones TRCN0000077206 ([…] (SEQ ID NO: 45)) and TRCN0000007942 ([…] (SEQ ID NO: 46)) were chosen to target PRF1 in mouse and human astrocytes, respectively. […]
(§3) Crude protein cell lysates were obtained using the Tissue Protein Extracting Reagent (Pierce, Rockford, Ill.) following manufacture recommendations. […] Bound primary antibody was detected by horseradish peroxidase conjugated secondary antibody (Jackson ImmunoResearch, West Grove, Pa.) followed by chemiluminescence using ECLTM Western Blotting Detection Reagents (GE Healthcare).

PRF1 = test: Western blot of PRF1 knockdown in human astrocytes; type: cell-based
Description: as §1, §2, §3

## CATTGTCTCCTATGGACGAAA (expressed or natural sequence) [SEQ ID NO: 2]
GZMB
  GZMB expression: efficiently ablate

## ACCTGAATCATGGCCACCTAA (chemistry not given here) [SEQ ID NO: 1]
PRF1
  PRF1 expression: efficiently ablate

From patent US9539307B2, “Compositions and methods for treating amyotrophic lateral sclerosis” (THE RESEARCH INSTITUTE AT NATIONWIDE CHILDREN'S HOSPITAL, priority 2012, dated 2017)
